Test results taken from patent EP4663632A1, “COMPOUNDS USEFUL FOR THE MODULATION OF THE ACTIVITY OF STING” (Sulis Therapeutics ApS, priority 2024, dated 2025).

Experiments:
[1] = target: T1, C-terminal domain (CTD) of human STING (Homo sapiens, UniProt Q86WV6); test: STING binding TR-FRET assay; design: purchased CisBio 64BDSTGPEG; conditions: Human STING WT Binding Kit (CisBio)
Protocol: The affinity of molecules to the C-terminal domain (CTD) of human STING was determined using a commercial Human STING WT Binding Kit (CisBio, cat.# 64BDSTGPEG). In this time-resolved FRET assay, a recombinant human STING protein construct with a His-tag was employed. When bound to STING, a D2-labeled active site probe accepts the 620 nm emission from Anti-HIS-Tb-STING and an increase in fluorescence is measured at 665 nm. Molecules that compete for the probe binding site will result in a low 665 nm signal. The assay was run in CisBio low-volume white 96-well plates (catalog# 66PL96005) containing 5 µL compounds in Diluent Buffer (supplied with the CisBio kit). A solution of 1xSTING, 1x Anti-HIS-Tb and 1X D2-probe in TB detection buffer (kit supplied) was added to the plate. Plates were centrifuged for 2 min at 500 rpm, incubated for 60 min at room temperature in the dark, and then fluorescence emission at 665 nm following 330 nm xenon flash excitation on an BioTek synergy H1 multimode reader (Agilent) was measured. The plC50 values were determined using a standard four parameter curve fit in GraphPad Prism.
Target sequence in this assay (Q86WV6 135-379 limits assumed): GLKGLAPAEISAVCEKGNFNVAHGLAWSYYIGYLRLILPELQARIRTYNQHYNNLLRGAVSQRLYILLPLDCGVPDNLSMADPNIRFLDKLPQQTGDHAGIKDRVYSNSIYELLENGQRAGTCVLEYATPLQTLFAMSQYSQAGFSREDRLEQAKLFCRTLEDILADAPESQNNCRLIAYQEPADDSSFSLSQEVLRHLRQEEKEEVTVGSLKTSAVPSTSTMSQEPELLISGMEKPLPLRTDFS

[2] = target: T1, C-terminal domain (CTD) of human STING; test: STING binding FP assay I; design: recombinant human STING protein (155-379); conditions: 35 nM STING, 4 nM Probe 1
Protocol: The interaction between molecules and the C-terminal domain (CTD) of human STING was evaluated using a competition binding assay. In this assay, recombinant human STING protein (155-379) and a STING binding fluorescent probe were employed. Upon binding of the probe to STING, the rotation of the fluorescent probe is slowed due to the larger molecular size of the protein-bound complex. As a result, emitted light retains its plane of polarization, leading to an increase in fluorescence polarization. Molecules competing for the probe binding site displace the probe, which leads to rapid randomization of the polarization plane of the emitted light and a subsequent decrease in measured fluorescence polarization signal. Change in polarization was measured, allowing a comparative evaluation of the binding affinities of different compounds to the target protein.
The assay was performed in 96-well plates (ThermoFisher, cat.# 237108) containing 100µl : 10 µL test compound in 10% DMSO and buffer A (150 mM NaCl, 50 mM HEPES pH 7.5, 1 mM DTT) + 90 µL prepared master mix solution of: 4 nM fluorescein-labelled STING ligand (Probe 1; synthesis described above) in buffer A + 0.055% Tween-20 (v/v) and 35 nM STING in buffer A. Post mixing, plates were agitated at 600rpm and incubated for 20 min at room temperature. Subsequent measurements of the fluorescence polarization signal were made on a BioTek Synergy-H1 plate reader, using a polarization filter; Exc: 485/20 nm, Em: […]) with a gain-setting of 75. IC50 values were determined using a standard non-linear regression four-parameter curve fit in Graphpad Prism.
Target sequence in this assay (Q86WV6 155-379): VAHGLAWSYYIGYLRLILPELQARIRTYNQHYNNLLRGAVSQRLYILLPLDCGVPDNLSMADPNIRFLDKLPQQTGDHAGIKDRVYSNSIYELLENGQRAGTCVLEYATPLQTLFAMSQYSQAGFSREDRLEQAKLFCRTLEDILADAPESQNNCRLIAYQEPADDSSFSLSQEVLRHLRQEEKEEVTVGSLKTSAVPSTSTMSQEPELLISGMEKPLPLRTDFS

For `CCOC(=O)COC(CCn1c(=NC(=O)c2cc(C)nn2CC)n(C)c2cc(C(N)=O)ccc21)CCn1c(=NC(=O)c2cc(C)nn2CC)n(C)c2cc(C(N)=O)ccc21` (centres unmarked) [Building Block G-2, Ethyl (3-{5-carbamoyl-2-[(1-ethyl-3-methyl-5-pyrazolyl)carbonylimino]-3-methyl-2,3-dihydro-1H-1,3-benzimidazol-1-yl}-1-(2-{5-carbamoyl-2-[(1-ethyl-3-methyl-5-pyrazolyl)carbonylimino]-3-methyl-2,3-dihydro-1H-1,3-benzimidazol-1-yl}ethyl)propoxy)acetate], the IC50 [1] was 0.452 nM and the IC50 [2] was < 30 nM.
